In ChEMBL document CHEMBL1122212, “Substance P” (1982):
Square brackets hold non-standard residues; d marks the D form. Peptide text beside a SMILES is read from it. pGlu = O=C1CC[C@@H](C(=O)O)N1

What was measured:
[1] = target: Substance-P receptor (Rattus norvegicus) (UniProt P14600); assay: Potency for [3H]SP binding to Tachykinin receptor 1 in rat brain central nervous system (CNS); type: tissue-based
Rattus norvegicus [2] = species: Rattus norvegicus; assay: Potency of compound was determined in rat vas deferens relative to substance E; type: functional
Rattus norvegicus [3] = species: Rattus norvegicus; assay: Potency of compound was determined in rat duodenum relative to substance E; type: functional
Cavia porcellus [4] = species: Cavia porcellus; assay: Potency of compound was determined for contraction of guinea pig vas deferens relative to substance P(=1); type: functional
Cricetinae gen. sp. = assay: Potency of compound was determined in hamster bladder relative to substance E; type: functional
Cavia porcellus [5] = species: Cavia porcellus; assay: Potency of compound was determined for contraction of guinea pig ileum relative to substance P(=1); type: functional
Rattus norvegicus [6] = species: Rattus norvegicus; assay: Potency of compound was determined for contraction of rat bladder relative to substance P(=1); type: functional

Sequence of Substance-P receptor (Rattus norvegicus) (P14600 whole entry): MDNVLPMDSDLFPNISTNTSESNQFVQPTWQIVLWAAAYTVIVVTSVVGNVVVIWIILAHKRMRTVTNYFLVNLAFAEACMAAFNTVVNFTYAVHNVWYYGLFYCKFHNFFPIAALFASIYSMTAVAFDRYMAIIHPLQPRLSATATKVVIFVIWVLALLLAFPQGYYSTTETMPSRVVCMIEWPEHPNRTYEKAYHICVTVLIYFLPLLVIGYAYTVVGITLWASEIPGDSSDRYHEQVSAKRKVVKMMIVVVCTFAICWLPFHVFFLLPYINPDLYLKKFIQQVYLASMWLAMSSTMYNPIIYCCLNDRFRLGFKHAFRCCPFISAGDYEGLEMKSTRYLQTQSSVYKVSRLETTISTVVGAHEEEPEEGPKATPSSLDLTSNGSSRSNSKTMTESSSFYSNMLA

Q: With `CC[C@H](C)[C@H](NC(=O)[C@H](Cc1ccccc1)NC(=O)[C@H](C)NC(=O)[C@H](CC(=O)O)NC(=O)[C@H](CCCCN)NC(=O)[C@H](CO)NC(=O)[C@@H]1CCCN1C(=O)[C@@H]1CCC(=O)N1)C(=O)NCC(=O)N[C@@H](CC(C)C)C(=O)N[C@@H](CCSC)C(N)=O` [ELEDOISIN] ([pGlu]PSKDAFIGLM-NH2) as the molecule, how does the Potency [1] read?
A: 0.3

Q: And the Potency (Rattus norvegicus [2])?
A: 86

Q: And the Potency (Rattus norvegicus [3])?
A: 13.9

Q: What about the Potency (Cavia porcellus [4]) of the same molecule?
A: 0.6

Q: And the Potency (Cricetinae gen. sp.)?
A: 105

Q: What about the Potency (Cavia porcellus [5]) of the same molecule?
A: 0.9

Q: What about the Potency (Rattus norvegicus [6]) of the same molecule?
A: 0.96
